Test results reported in patent US10294202B2, “Pyrrolidinones as herbicides” (FMC Corporation, priority 2013, dated 2019).

Assays:
foxtail, green = test: Test D pre-/postemergence herbicide test; format: in vivo, Setaria viridis; conditions: for Plant response rating: Foxtail, Green, scale 0 to 100; for Plant response rating, Foxtail, Green: scale 0 to 100 (0 no effect, 100 complete control)
Procedure, shortened: (§1)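 Plants were maintained 7 to 21 days in a controlled environment after treatment and then scored visually against controls (0 no effect, 100 complete control). Seeds in silt loam received preemergence sprays, and 1- to 4-leaf plants received postemergence sprays, both formulated in non-phytotoxic solvent with surfactant.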

deadnettle = test: Test D pre-/postemergence herbicide test; format: in vivo, Lamium amplexicaule; conditions: for Plant response rating: Deadnettle, scale 0 to 100; for Plant response rating, Deadnettle: scale 0 to 100 (0 no effect, 100 complete control)
Procedure, shortened: as §1

oilseed rape = test: Test D pre-/postemergence herbicide test; format: in vivo, Brassica napus; conditions: for Plant response rating: Postemergence, Oilseed Rape, scale 0 to 100; for Plant response rating, Oilseed Rape: Preemergence, scale 0 to 100 (0 no effect, 100 complete control)
Procedure, shortened: as §1

pigweed = test: Test D pre-/postemergence herbicide test; format: in vivo, Amaranthus retroflexus; conditions: for Plant response rating: Postemergence, Pigweed, scale 0 to 100; for Plant response rating, Pigweed: Preemergence, scale 0 to 100 (0 no effect, 100 complete control)
Procedure, shortened: as §1

speedwell = test: Test D pre-/postemergence herbicide test; format: in vivo, Veronica persica; conditions: for Plant response rating: Postemergence, Speedwell, scale 0 to 100; for Plant response rating, Speedwell: Preemergence, scale 0 to 100 (0 no effect, 100 complete control)
Procedure, shortened: as §1

barley, spring = test: Test D pre-/postemergence herbicide test; format: in vivo, Hordeum vulgare; conditions: for Plant response rating: Barley, Spring, scale 0 to 100; for Plant response rating, Barley, Spring: scale 0 to 100 (0 no effect, 100 complete control)
Procedure, shortened: as §1

barley, winter = test: Test D pre-/postemergence herbicide test; format: in vivo, Hordeum vulgare; conditions: for Plant response rating: Barley, Winter, scale 0 to 100; for Plant response rating, Barley, Winter: scale 0 to 100 (0 no effect, 100 complete control)
Procedure, shortened: as §1

crabgrass, Brazil = test: Test E preemergence herbicide test; format: in vivo, Digitaria horizontalis; design: key: 0 = no effect, 100 = complete control
Source text: (§2) Seeds of plant species selected from corn (Zea mays), soybean (Glycine max), velvetleaf (Abutilon theophrasti), lambsquarters (Chenopodium album), wild poinsettia (Euphorbia heterophylla), pigweed, palmer (palmer pigweed, Amaranthus palmeri), waterhemp (common waterhemp, Amaranthus rudis), surinam grass (Brachiaria decumbens), crabgrass, large (large crabgrass, Digitaria sanguinalis), crabgrass, Brazil (Brazilian crabgrass, Digitaria horizontalis), panicum, fall (fall panicum, Panicum dichotomiflorum), foxtail, giant (giant foxtail, Setaria faberii), foxtail, green (green foxtail, Setaria viridis), goosegrass (Eleusine indica), johnsongrass (Sorghum halepense), ragweed (common ragweed, Ambrosia elatior), barnyardgrass (Echinochloa crus-galli), sandbur (southern sandbur, Cenchrus echinatus), arrowleaf […] rhombifolia), ryegrass, Italian (Italian ryegrass, Lolium multiflorum), dayflower, VA (Virginia dayflower, Commelina virginica), field bindweed (Convolvulus arvensis), morningglory (Ipomoea coccinea), nightshade (eastern black nightshade, Solanum ptycanthum), kochia (Kochia scoparia), nutsedge, yellow (yellow nutsedge, Cyperus esculentus), cocklebur (common cocklebur, Xanthium strumarium), smartweed (ladysthumb smartweed, Polygonum Persicaria) and beggarticks (hairy beggarticks, Bidens pilosa), were planted into a silt loam soil and treated preemergence with test chemicals formulated in a non-phytotoxic solvent mixture which included a surfactant. Treated plants and controls were maintained in a greenhouse for 21 days, after which time all species were compared to controls and visually evaluated. Plant response ratings, summarized in Table E, are based on a scale of 0 to 100 where 0 is no effect and 100 is complete control. A dash (-) response means no test result.

beggarticks = test: Test E preemergence herbicide test; format: in vivo, Bidens pilosa; design: key: 0 = no effect, 100 = complete control
Source text: as §2

Work on O=C1NCC(c2ccc(C(F)(F)F)cc2)C1C(=O)Nc1cccc(F)c1F (stereo not shown) [Compound 80, N-(2,3-difluorophenyl)-2-oxo-4-[4-(trifluoromethyl)phenyl]-3-pyrrolidinecarboxamide] yielded a Plant response rating (foxtail, green; Postemergence, 31 g ai/ha) of 45, a Plant response rating (foxtail, green; Postemergence, 62 g ai/ha) of 45 and a Plant response rating (foxtail, green; Postemergence, 125 g ai/ha) of 65. The Plant response rating (foxtail, green; Postemergence, 250 g ai/ha) was 65, the “Plant response rating, Foxtail, Green” value (foxtail, green; Preemergence, 62 g ai/ha) was 65 and the “Plant response rating, Foxtail, Green” value (foxtail, green; Preemergence, 31 g ai/ha) was 20. For the same compound, the Plant response rating (foxtail, green; Preemergence, 125 g ai/ha) was 75, the Plant response rating (foxtail, green; Preemergence, 250 g ai/ha) was 80 and the Plant response rating (deadnettle; Postemergence, 31 g ai/ha) was 70. It also gave a Plant response rating (deadnettle; Postemergence, 62 g ai/ha) of 60, a Plant response rating (deadnettle; Postemergence, 125 g ai/ha) of 70 and a Plant response rating (deadnettle; Postemergence, 250 g ai/ha) of 40. For the same compound, the “Plant response rating, Deadnettle” value (deadnettle; Preemergence, 62 g ai/ha) was 0, the “Plant response rating, Deadnettle” value (deadnettle; Preemergence, 31 g ai/ha) was 0 and the Plant response rating (deadnettle; Preemergence, 125 g ai/ha) was 65. The Plant response rating (deadnettle; Preemergence, 250 g ai/ha) was 70, the Plant response rating (oilseed rape; 31 g ai/ha) was 30 and the Plant response rating (oilseed rape; 62 g ai/ha) was 50. The Plant response rating (oilseed rape; 125 g ai/ha) was 45, the Plant response rating (oilseed rape; 250 g ai/ha) was 60 and the “Plant response rating, Oilseed Rape” value (oilseed rape; 62 g ai/ha) was 10. For the same compound, the “Plant response rating, Oilseed Rape” value (oilseed rape; 125 g ai/ha) was 10, the “Plant response rating, Oilseed Rape” value (oilseed rape; 31 g ai/ha) was 0 and the “Plant response rating, Oilseed Rape” value (oilseed rape; 250 g ai/ha) was 30. For the same compound, the Plant response rating (pigweed; 31 g ai/ha) was 40, the Plant response rating (pigweed; 62 g ai/ha) was 70 and the Plant response rating (pigweed; 125 g ai/ha) was 70. The Plant response rating (pigweed; 250 g ai/ha) was 75, the “Plant response rating, Pigweed” value (pigweed; 62 g ai/ha) was 10 and the “Plant response rating, Pigweed” value (pigweed; 125 g ai/ha) was 20. The “Plant response rating, Pigweed” value (pigweed; 31 g ai/ha) was 5, the “Plant response rating, Pigweed” value (pigweed; 250 g ai/ha) was 45 and the Plant response rating (speedwell; 31 g ai/ha) was 60. For the same compound, the Plant response rating (speedwell; 62 g ai/ha) was 70, the Plant response rating (speedwell; 125 g ai/ha) was 70 and the Plant response rating (speedwell; 250 g ai/ha) was 65. The “Plant response rating, Speedwell” value (speedwell; 62 g ai/ha) was 85, the “Plant response rating, Speedwell” value (speedwell; 125 g ai/ha) was 85 and the “Plant response rating, Speedwell” value (speedwell; 31 g ai/ha) was 10. For the same compound, the “Plant response rating, Speedwell” value (speedwell; 250 g ai/ha) was 100, the Plant response rating (barley, spring; Postemergence, 31 g ai/ha) was 0 and the Plant response rating (barley, spring; Postemergence, 62 g ai/ha) was 0. The Plant response rating (barley, spring; Postemergence, 125 g ai/ha) was 0, the Plant response rating (barley, spring; Postemergence, 250 g ai/ha) was 0 and the “Plant response rating, Barley, Spring” value (barley, spring; Preemergence, 62 g ai/ha) was 10. For the same compound, the “Plant response rating, Barley, Spring” value (barley, spring; Preemergence, 31 g ai/ha) was 0, the Plant response rating (barley, spring; Preemergence, 125 g ai/ha) was 15 and the Plant response rating (barley, spring; Preemergence, 250 g ai/ha) was 30. It also gave a Plant response rating (barley, winter; Postemergence, 31 g ai/ha) of 0, a Plant response rating (barley, winter; Postemergence, 62 g ai/ha) of 0 and a Plant response rating (barley, winter; Postemergence, 125 g ai/ha) of 0. For the same compound, the Plant response rating (barley, winter; Postemergence, 250 g ai/ha) was 0, the “Plant response rating, Barley, Winter” value (barley, winter; Preemergence, 62 g ai/ha) was 5 and the “Plant response rating, Barley, Winter” value (barley, winter; Preemergence, 31 g ai/ha) was 0. For the same compound, the Plant response rating (barley, winter; Preemergence, 125 g ai/ha) was 15, the Plant response rating (barley, winter; Preemergence, 250 g ai/ha) was 25 and the “Plant response rating, Crabgrass, Brazil” value (crabgrass, Brazil; 125 g ai/ha) was 70. The “Plant response rating, Crabgrass, Brazil” value (crabgrass, Brazil; 250 g ai/ha) was 95, the “Plant response rating, Beggarticks” value (beggarticks; 16 g ai/ha) was 0 and the “Plant response rating, Beggarticks” value (beggarticks; 31 g ai/ha) was 0. The “Plant response rating, Beggarticks” value (beggarticks; 62 g ai/ha) was 0, the “Plant response rating, Beggarticks” value (beggarticks; 125 g ai/ha) was 20 and the “Plant response rating, Beggarticks” value (beggarticks; 250 g ai/ha) was 60.

O=C1NCC(c2ccc(F)c(F)c2)C1C(=O)Nc1cccc(F)c1F (stereo not shown) [Compound 17, N-(2,3-difluorophenyl)-4-(3,4-difluorophenyl)-2-oxo-3-pyrrolidinecarboxamide] was tested, and the Plant response rating (foxtail, green; Postemergence, 16 g ai/ha) was 0, the Plant response rating (foxtail, green; Postemergence, 31 g ai/ha) was 0 and the Plant response rating (foxtail, green; Postemergence, 62 g ai/ha) was 0. The Plant response rating (foxtail, green; Postemergence, 125 g ai/ha) was 0, the Plant response rating (foxtail, green; Postemergence, 250 g ai/ha) was 0 and the Plant response rating (deadnettle; Postemergence, 16 g ai/ha) was 0. For the same compound, the Plant response rating (deadnettle; Postemergence, 31 g ai/ha) was 0, the Plant response rating (deadnettle; Postemergence, 62 g ai/ha) was 0 and the Plant response rating (deadnettle; Postemergence, 125 g ai/ha) was 10. It also gave a Plant response rating (deadnettle; Postemergence, 250 g ai/ha) of 10, a Plant response rating (oilseed rape; 16 g ai/ha) of 0 and a Plant response rating (oilseed rape; 31 g ai/ha) of 0. It also gave a Plant response rating (oilseed rape; 62 g ai/ha) of 10, a Plant response rating (oilseed rape; 125 g ai/ha) of 20 and a Plant response rating (oilseed rape; 250 g ai/ha) of 40. The Plant response rating (pigweed; 16 g ai/ha) was 0, the Plant response rating (pigweed; 31 g ai/ha) was 0 and the Plant response rating (pigweed; 62 g ai/ha) was 40. For the same compound, the Plant response rating (pigweed; 125 g ai/ha) was 50, the Plant response rating (pigweed; 250 g ai/ha) was 50 and the Plant response rating (speedwell; 16 g ai/ha) was 0. The Plant response rating (speedwell; 31 g ai/ha) was 0, the Plant response rating (speedwell; 62 g ai/ha) was 0 and the Plant response rating (speedwell; 125 g ai/ha) was 0. It also gave a Plant response rating (speedwell; 250 g ai/ha) of 0, a Plant response rating (barley, spring; Postemergence, 16 g ai/ha) of 0 and a Plant response rating (barley, spring; Postemergence, 31 g ai/ha) of 0. The Plant response rating (barley, spring; Postemergence, 62 g ai/ha) was 0, the Plant response rating (barley, spring; Postemergence, 125 g ai/ha) was 0 and the Plant response rating (barley, spring; Postemergence, 250 g ai/ha) was 0. The Plant response rating (barley, winter; Postemergence, 16 g ai/ha) was 0, the Plant response rating (barley, winter; Postemergence, 31 g ai/ha) was 0 and the Plant response rating (barley, winter; Postemergence, 62 g ai/ha) was 0. For the same compound, the Plant response rating (barley, winter; Postemergence, 125 g ai/ha) was 0, the Plant response rating (barley, winter; Postemergence, 250 g ai/ha) was 0 and the “Plant response rating, Crabgrass, Brazil” value (crabgrass, Brazil; 16 g ai/ha) was 40. The “Plant response rating, Crabgrass, Brazil” value (crabgrass, Brazil; 31 g ai/ha) was 65, the “Plant response rating, Crabgrass, Brazil” value (crabgrass, Brazil; 62 g ai/ha) was 95 and the “Plant response rating, Crabgrass, Brazil” value (crabgrass, Brazil; 125 g ai/ha) was 95. The “Plant response rating, Crabgrass, Brazil” value (crabgrass, Brazil; 250 g ai/ha) was 98.

For O=C1NCC(c2ccc(OC(F)F)cc2)C1C(=O)Nc1cccc(F)c1F (racemic) [Compound 350], the “Plant response rating, Crabgrass, Brazil” value (crabgrass, Brazil; 31 g ai/ha) was 0, the “Plant response rating, Crabgrass, Brazil” value (crabgrass, Brazil; 62 g ai/ha) was 75 and the “Plant response rating, Crabgrass, Brazil” value (crabgrass, Brazil; 125 g ai/ha) was 95. The “Plant response rating, Crabgrass, Brazil” value (crabgrass, Brazil; 250 g ai/ha) was 98, the “Plant response rating, Beggarticks” value (beggarticks; 31 g ai/ha) was 0 and the “Plant response rating, Beggarticks” value (beggarticks; 62 g ai/ha) was 0. For the same compound, the “Plant response rating, Beggarticks” value (beggarticks; 125 g ai/ha) was 20 and the “Plant response rating, Beggarticks” value (beggarticks; 250 g ai/ha) was 20.

With O=C1NCC(c2ccc(Cl)c(Cl)c2)C1C(=O)Nc1ccccc1F (racemic) [Compound 14] the “Plant response rating, Crabgrass, Brazil” value (crabgrass, Brazil; 16 g ai/ha) was 0, the “Plant response rating, Crabgrass, Brazil” value (crabgrass, Brazil; 31 g ai/ha) was 65 and the “Plant response rating, Crabgrass, Brazil” value (crabgrass, Brazil; 62 g ai/ha) was 80. For the same compound, the “Plant response rating, Crabgrass, Brazil” value (crabgrass, Brazil; 125 g ai/ha) was 95, the “Plant response rating, Crabgrass, Brazil” value (crabgrass, Brazil; 250 g ai/ha) was 95 and the “Plant response rating, Beggarticks” value (beggarticks; 16 g ai/ha) was 0. For the same compound, the “Plant response rating, Beggarticks” value (beggarticks; 31 g ai/ha) was 0, the “Plant response rating, Beggarticks” value (beggarticks; 62 g ai/ha) was 0 and the “Plant response rating, Beggarticks” value (beggarticks; 125 g ai/ha) was 0. For the same compound, the “Plant response rating, Beggarticks” value (beggarticks; 250 g ai/ha) was 0.
